According to ChEMBL document CHEMBL6182852, “Discovery of ATP competitive PDHK1/2 dual inhibitors” (Bioorg Med Chem Lett, 2025):

Experiments:
[1] = biological target: [Pyruvate dehydrogenase (acetyl-transferring)] kinase isozyme 2, mitochondrial (Homo sapiens, UniProt Q15119); test: Inhibition of PDHK2 (unknown origin)
[2] = Inhibition of E1 PDHK (unknown origin) phosphorylation at S232 residues; set-up: species or system Homo sapiens
[3] = Cytotoxicity against human PBMC cells
[4] = Inhibition of LPS-induced TNF release in human PBMC cells; type: functional, cell-based
[5] = biological target: [Pyruvate dehydrogenase (acetyl-transferring)] kinase isozyme 1, mitochondrial (Homo sapiens, UniProt Q15118); test: Inhibition of PDHK1 (unknown origin) in presence of 0.5 uM ATP
Sequence of [Pyruvate dehydrogenase (acetyl-transferring)] kinase isozyme 1, mitochondrial (Q15118 whole entry): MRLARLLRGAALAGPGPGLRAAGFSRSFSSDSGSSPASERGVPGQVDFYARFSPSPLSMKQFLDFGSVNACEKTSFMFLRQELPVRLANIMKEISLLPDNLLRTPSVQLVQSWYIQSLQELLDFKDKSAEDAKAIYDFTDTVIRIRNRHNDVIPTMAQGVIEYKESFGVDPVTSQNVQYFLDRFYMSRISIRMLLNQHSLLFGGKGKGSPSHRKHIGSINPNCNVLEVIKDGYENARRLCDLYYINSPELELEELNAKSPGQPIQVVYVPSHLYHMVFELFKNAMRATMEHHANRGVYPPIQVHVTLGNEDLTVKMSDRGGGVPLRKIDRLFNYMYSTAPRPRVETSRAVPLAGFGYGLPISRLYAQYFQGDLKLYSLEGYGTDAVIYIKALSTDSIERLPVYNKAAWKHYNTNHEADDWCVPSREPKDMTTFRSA

IC50 [1] [µM] | IC50 [4] [µM] | IC50 [5] [µM] | SMILES | IC50 [2] [µM] | CC50 [3] [µM]
0.034 | 71 | – | CCNc1cc(F)cc2c1[nH]c(=O)n2-c1c(C)cc(Oc2cccc(C(=O)O)c2)cc1Cl | > 100 | > 100
– | 49 | – | CCNc1cc(F)cc2c1NC(=O)C2(C)N1CCCCC1 (racemic) | – | > 100
0.015 | 0.9 | – | CCNc1cc(F)cc2c1NC(=O)C2(CC)N1CCC[C@@H](NC(=O)C2CC3(C2)CN(C#N)C3)C1 (mixture of isomers) | – | > 100
– | 4.5 | – | CCNc1cc(F)cc2c1NC(=O)C2(C)N1CCC[C@@H](Nc2ccc(C#N)nc2)C1 (mixture of isomers) | – | 56.9
– | > 100 | – | CCNc1cc(F)cc2c1NC(=O)C2(C)N1CCC[C@@H](Nc2ccc(C(=O)O)c(Cl)c2)C1 (stereo partly drawn) | – | > 100
– | – | > 100 | CSc1cc(-c2nccs2)n[nH]1 | – | –

SMILES | IC50 [1] [µM] | IC50 [4] [µM] | IC50 [5] [µM] | IC50 [2] [µM] | CC50 [3] [µM]
CCNc1cc(F)cc2c1[nH]c(=O)n2-c1ccc(Oc2cccc(S(=O)(=O)F)c2)cc1 | 0.12 | 24.5 | – | 5.3 | > 100
